Source: patent US9701655B2, “Functionalised benzopyran compounds and use thereof” (NOVOGEN LIMITED, priority 2014, dated 2017)

Key:
MDA-MB-231 = assay: Proliferation of somatic cancer cells (cell-titre luminescence), MDA-MB-231; type: cell-based; details: Breast MDA-MB-231, 72 hrs
Summary of the method: (§1)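 24 hrs attachment (37° C., 5% CO2, ATCC media) → compound 30/3/0.3/0.03 μM, 72 hrs → cell-titre luminescence reagent 30 mins. Signal vs control; IC50 by linear regression on semi-log % control vs concentration.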

DU145 = assay: Proliferation of somatic cancer cells (cell-titre luminescence), DU145; type: cell-based; details: Prostate DU145, 72 hrs
Summary of the method: as §1

A2780 = assay: Proliferation of somatic cancer cells (cell-titre luminescence), A2780; type: cell-based; details: Homo sapiens; Ovarian A2780, 72 hrs
Experimental: (§2) The ability of selected compounds to inhibit the proliferation of cancer cells representative of melanoma, non-small cell lung cancer, colorectal cancer, breast cancer (Estogen Receptor negative (ER−ve, TNBC−R−ve, Progesterone Receptor negative and negative for EGFR amplification), prostate cancer, liver cancer, ovarian cancer, pancreatic cancer and brain cancer was studied. A pre-determined number of cells as calculated from cell growth assays for each of the cell lines employed were seeded into their respective culture mediums (using ATCC culture parameters—http://wwvv.atcc.org) and cultured for 24 hrs at 37° C. and 5% CO2 in 96-well culture plates. Once attached, each cell line was then exposed to various concentrations of each respective analogue (30, 3, 0.3 and 0.03 μM), cultured for a further 72 hrs and exposed to cell-titre luminescent reagent (100μ/well) for a further 30 mins). Luminescence was captured using an EnVision multilabel reader and the data for each analogue concentration compared against control. Semi-log plots of Percent of Control versus concentration were prepared and IC50 determined using linear regression analysis. In Table 6, compounds Comp 1, Comp 2 and Comp 3 are comparative compounds having the following structures: […]

A549 = assay: Proliferation of somatic cancer cells (cell-titre luminescence), A549; type: cell-based; details: Lung (NSCLC) A549, 72 hrs
Summary of the method: as §1

OVCAR-3 = assay: Proliferation of somatic cancer cells (cell-titre luminescence), OVCAR-3; type: cell-based; details: Homo sapiens; Ovarian OVCAR-3, 72 hrs
Summary of the method: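 Cells seeded and cultured 24 h at 37 °C, 5% CO2, then exposed to compound at 30, 3, 0.3 and 0.03 μM for a further 72 h. Viability read by cell-titre luminescence after 30 min; IC50 from linear regression of semi-log plots of percent of control versus concentration.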

U87-MG = assay: Proliferation of somatic cancer cells (cell-titre luminescence), U87-MG; type: cell-based; details: Homo sapiens, U-87 MG; Brain U87-MG, 72 hrs
Experimental: as §2

D54-resistant = assay: Cell viability (SRB or MTT), TMZ-resistant D54 subclone; type: cell-based; details: 72 h, 72 hours post treatment
Experimental: (§3) The anti-proliferative activity of compound 2 was also assessed in matched TMZ susceptible (D54-S and U87-S) or resistant (D54-R and […]) cell lines (Hong Kong University, Dr Gilberto Leung). […] SRB tended to overestimate cytotoxicity compared to MTT.

MiaPaCa-2 = assay: Proliferation of somatic cancer cells (cell-titre luminescence), MiaPaCa-2; type: cell-based; details: Homo sapiens, MIA PaCa-2; Pancreatic MiaPaCa-2, 72 hrs
Experimental: as §2

D54-sensitive = assay: Cell viability (SRB or MTT), TMZ-sensitive D54 subclone; type: cell-based; details: 72 h, 72 hours post treatment
Experimental: as §3

PC3 = assay: Proliferation of somatic cancer cells (cell-titre luminescence), PC3; type: cell-based; details: Prostate PC3, 72 hrs
Summary of the method: as §1

[1] = Pharmacokinetic testing, i.v. cassette dose; type: in vivo, Sprague-Dawley rats; details: rat, tail vein cassette dose, 1 mg/Kg each, 30% Captisol
Experimental: FIG. 10: PK profile of compounds 2, 6, 9 and 13 (which is labelled as 31) at 1 mg/kg delivered in 30% Captisol® formulation.
A study of the pharmacokinetic behavior of compounds 2, 6, 9, 13 was performed.
The study comprised Phase 1, a preformulation study ensuring all compounds were soluble in 30% Captisol® solution and formed a homogenous mixture suitable for i.v delivery. A number of LC-MS methods were developed and partially validated to ensure each analyte could be quantified from the plasma matrix and that there was no interference between any of the analytes. Phase 2 comprised the in-life study whereby Sprague-Dawley rats were acclimatised for three days prior to being injected in the tail vein with a cassette dose of four compounds, each at a final concentration of 1 mg/Kg. A total of three rats were used in the study with blood sampling with anticoagulant tubes at 5 mins, 30 mins, 1 hr, 2 hrs, 4 hrs, 6 hrs and 8 hrs. The third phase of the study was the bioanalysis of the analytes. The blood samples were centrifuged at 1200 rpm for 10 mins at 4° C. After the RBCs and the plasma were separated, the plasma was stored at −80 ° C. until processed and injected into the LC-MS. Samples from individual rats were treated as individual samples with the PK profile generated from the mean of the data from the three rats.

Question: With `COc1cc(C2COc3c(ccc(O)c3C)C2c2ccc(O)cc2)cc(OC)c1O` (racemic) [Compound 2, 3-(4-Hydroxy-3,5-dimethoxyphenyl)-4-(4-hydroxyphenyl)-8-methylchroman-7-ol] as the compound, how does the IC50 (MDA-MB-231) read?
Answer: 800 nM

Question: What about the IC50 (MDA-MB-231; Homo sapiens, MDA-MB-231, 72 h) of the same compound?
Answer: < 1000 nM

Question: And the IC50 (DU145)?
Answer: 80 nM

Question: And the IC50 (DU145; listed as compound 2)?
Answer: < 1000 nM

Question: And the IC50 (A2780)?
Answer: 60 nM

Question: What about the IC50 (A549) of the same compound?
Answer: 40 nM

Question: And the IC50 (A549; listed as compound 2)?
Answer: < 1000 nM

Question: What about the IC50 (OVCAR-3) of the same compound?
Answer: 63 nM

Question: And the IC50 (U87-MG)?
Answer: 50 nM

Question: And the IC50 (D54-resistant; MTT)?
Answer: 215 nM

Question: And the IC50 (D54-resistant; SRB)?
Answer: 92 nM

Question: And the IC50 (MiaPaCa-2)?
Answer: 50 nM

Question: And the IC50 (D54-sensitive; MTT)?
Answer: 271 nM

Question: What about the IC50 (D54-sensitive; SRB) of the same compound?
Answer: 90 nM

Question: And the IC50 (PC3; Homo sapiens, PC-3, 72 h)?
Answer: 1490 nM

Question: What about the “plasma concentrations (PK behaviour)” value [1] of the same compound?
Answer: achieve plasma concentrations with the proposed pharmaceutic window of efficacy

Question: What does the source list for `COc1cc(C2COc3cc(O)ccc3C2c2ccc(O)c(F)c2)cc(OC)c1O` (racemic) [Compound 6, 4-(3-Fluoro-4-hydroxyphenyl)-3-(4-hydroxy-3,5-dimethoxyphenyl)chroman-7-ol]?
Answer: IC50 (MDA-MB-231): 1700 nM; IC50 (MDA-MB-231; Homo sapiens, MDA-MB-231, 72 h): < 2000 nM; IC50 (DU145; Homo sapiens, DU-145, 72 h): < 1000 nM; IC50 (DU145): 800 nM; IC50 (A549; Homo sapiens, A549, 72 h): < 1000 nM; IC50 (A549): 700 nM; IC50 (OVCAR-3): 63 nM; IC50 (U87-MG): 478 nM; IC50 (PC3; Homo sapiens, PC-3, 72 h): < 1000 nM; IC50 (PC3): 500 nM; plasma concentrations (PK behaviour) [1]: achieve plasma concentrations with the proposed pharmaceutic window of efficacy

Question: Which results are given for `COc1cc(C2COc3c(ccc(O)c3C)C2c2ccc(O)c(F)c2)cc(OC)c1O` (racemic) [Compound 9, 4-(3-Fluoro-4-hydroxyphenyl)-3-(4-hydroxy-3,5-dimethoxyphenyl)-8-methylchroman-7-ol]?
Answer: IC50 (A2780): 90 nM; IC50 (OVCAR-3): 58 nM; IC50 (U87-MG): 50 nM; IC50 (MiaPaCa-2): 60 nM; plasma concentrations (PK behaviour) [1]: achieve plasma concentrations with the proposed pharmaceutic window of efficacy
